Measured values: patent US11208386B2, “Inhibitors of protein arginine deiminases (PADs) and methods of preparation and use thereof” (University of Massachusetts, priority 2016, dated 2021)

Experiments:
Assay type in all cases: biochemical
PAD2 = molecular target: T1, PAD2 (Homo sapiens, UniProt Q9Y2J8); test: Inactivation kinetics, PAD2; details: for kinact/KI: a: single kobs determined, b: from a linear fit, other footnotes: from kinact and KI; for Fold PAD2 Selectivity: kinact/KI relative to least inhibited isozyme (1.0)
T1 construct: made in house
Method in brief: (§1)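 PAD1, 2 or 4 (2.0 μM) or PAD3 (5.0 μM) preincubated at 37 °C with varying inhibitor in 50 mM HEPES, 10 mM CaCl2, 2 mM DTT, pH 7.6. Timed aliquots assayed 15 min with 10 mM BAEE (BAA for PAD3); citrulline quantified by COLDER.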

PAD1 = molecular target: T2, PAD1 (Homo sapiens, UniProt Q9ULC6); test: Inactivation kinetics, PAD1; details: for kinact/KI: a: single kobs determined, b: from a linear fit; for Fold PAD1 Selectivity: kinact/KI relative to least inhibited isozyme (1.0)
T2 construct: made in house
T2 sequence (Q9ULC6 1-663): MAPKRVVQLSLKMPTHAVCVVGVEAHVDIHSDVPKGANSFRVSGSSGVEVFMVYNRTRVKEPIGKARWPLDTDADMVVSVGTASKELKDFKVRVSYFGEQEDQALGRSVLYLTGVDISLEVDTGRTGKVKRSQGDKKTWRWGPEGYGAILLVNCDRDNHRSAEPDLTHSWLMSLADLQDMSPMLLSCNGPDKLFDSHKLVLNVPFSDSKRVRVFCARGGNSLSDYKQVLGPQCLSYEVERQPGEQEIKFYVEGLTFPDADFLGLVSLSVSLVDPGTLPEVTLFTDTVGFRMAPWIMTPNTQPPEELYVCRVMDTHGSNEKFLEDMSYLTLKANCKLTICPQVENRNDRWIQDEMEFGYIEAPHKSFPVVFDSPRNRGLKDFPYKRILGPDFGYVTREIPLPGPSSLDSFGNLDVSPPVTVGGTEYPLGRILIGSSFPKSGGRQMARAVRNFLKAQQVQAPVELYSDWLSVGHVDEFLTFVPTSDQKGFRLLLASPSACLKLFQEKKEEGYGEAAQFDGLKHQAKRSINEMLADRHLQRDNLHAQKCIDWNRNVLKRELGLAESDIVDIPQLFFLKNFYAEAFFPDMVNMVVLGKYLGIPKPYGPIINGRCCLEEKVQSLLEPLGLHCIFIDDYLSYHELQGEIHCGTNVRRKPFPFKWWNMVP
Method in brief: as §1

PAD3 = molecular target: T3, PAD3 (Homo sapiens, UniProt Q9ULW8); test: Inactivation kinetics, PAD3; details: for kinact/KI: a: single kobs determined; for Fold PAD3 Selectivity: kinact/KI relative to least inhibited isozyme (1.0)
T3 construct: made in house
T3 sequence (Q9ULW8 1-664): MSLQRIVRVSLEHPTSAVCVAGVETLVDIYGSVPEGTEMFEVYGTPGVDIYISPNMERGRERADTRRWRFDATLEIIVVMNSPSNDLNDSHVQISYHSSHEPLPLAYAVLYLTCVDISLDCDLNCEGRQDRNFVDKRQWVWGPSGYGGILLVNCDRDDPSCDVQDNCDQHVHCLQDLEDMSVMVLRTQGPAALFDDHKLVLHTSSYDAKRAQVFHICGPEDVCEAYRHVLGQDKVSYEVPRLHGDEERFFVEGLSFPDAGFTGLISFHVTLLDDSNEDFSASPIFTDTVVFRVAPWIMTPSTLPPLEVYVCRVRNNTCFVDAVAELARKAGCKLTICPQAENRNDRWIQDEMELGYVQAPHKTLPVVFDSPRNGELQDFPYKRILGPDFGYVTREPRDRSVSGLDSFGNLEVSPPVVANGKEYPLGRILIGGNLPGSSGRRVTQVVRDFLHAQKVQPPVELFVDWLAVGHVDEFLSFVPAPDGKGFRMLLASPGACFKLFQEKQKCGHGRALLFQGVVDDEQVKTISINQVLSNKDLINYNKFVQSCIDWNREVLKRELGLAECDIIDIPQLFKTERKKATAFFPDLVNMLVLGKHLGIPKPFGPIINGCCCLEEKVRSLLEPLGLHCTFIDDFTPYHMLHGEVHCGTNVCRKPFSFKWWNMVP
Method in brief: as §1

PAD4 = molecular target: T4, PAD4 (Homo sapiens, UniProt Q9UM07); test: Inactivation kinetics, PAD4; details: for kinact/KI: a: single kobs determined, b: from a linear fit; for Fold PAD4 Selectivity: kinact/KI relative to least inhibited isozyme (1.0)
T4 construct: made in house
Method in brief: as §1

T1 sequence (Q9Y2J8 whole entry): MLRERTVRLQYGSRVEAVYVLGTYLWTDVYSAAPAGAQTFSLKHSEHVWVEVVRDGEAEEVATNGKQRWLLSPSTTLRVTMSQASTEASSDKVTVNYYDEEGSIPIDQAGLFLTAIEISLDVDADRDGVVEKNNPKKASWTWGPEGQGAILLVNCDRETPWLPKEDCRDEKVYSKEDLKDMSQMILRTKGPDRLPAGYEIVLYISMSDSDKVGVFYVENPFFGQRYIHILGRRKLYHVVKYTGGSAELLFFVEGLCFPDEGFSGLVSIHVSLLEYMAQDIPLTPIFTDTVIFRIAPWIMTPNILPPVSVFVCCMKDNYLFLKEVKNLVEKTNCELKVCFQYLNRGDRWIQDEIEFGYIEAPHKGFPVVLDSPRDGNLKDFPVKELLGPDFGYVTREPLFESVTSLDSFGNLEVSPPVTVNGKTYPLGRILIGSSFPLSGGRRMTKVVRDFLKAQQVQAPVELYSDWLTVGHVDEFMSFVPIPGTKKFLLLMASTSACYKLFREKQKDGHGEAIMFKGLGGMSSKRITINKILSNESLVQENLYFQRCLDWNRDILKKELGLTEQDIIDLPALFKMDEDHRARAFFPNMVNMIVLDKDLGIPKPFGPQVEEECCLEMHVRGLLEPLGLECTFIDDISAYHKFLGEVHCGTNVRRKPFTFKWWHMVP
T4 sequence (Q9UM07 whole entry): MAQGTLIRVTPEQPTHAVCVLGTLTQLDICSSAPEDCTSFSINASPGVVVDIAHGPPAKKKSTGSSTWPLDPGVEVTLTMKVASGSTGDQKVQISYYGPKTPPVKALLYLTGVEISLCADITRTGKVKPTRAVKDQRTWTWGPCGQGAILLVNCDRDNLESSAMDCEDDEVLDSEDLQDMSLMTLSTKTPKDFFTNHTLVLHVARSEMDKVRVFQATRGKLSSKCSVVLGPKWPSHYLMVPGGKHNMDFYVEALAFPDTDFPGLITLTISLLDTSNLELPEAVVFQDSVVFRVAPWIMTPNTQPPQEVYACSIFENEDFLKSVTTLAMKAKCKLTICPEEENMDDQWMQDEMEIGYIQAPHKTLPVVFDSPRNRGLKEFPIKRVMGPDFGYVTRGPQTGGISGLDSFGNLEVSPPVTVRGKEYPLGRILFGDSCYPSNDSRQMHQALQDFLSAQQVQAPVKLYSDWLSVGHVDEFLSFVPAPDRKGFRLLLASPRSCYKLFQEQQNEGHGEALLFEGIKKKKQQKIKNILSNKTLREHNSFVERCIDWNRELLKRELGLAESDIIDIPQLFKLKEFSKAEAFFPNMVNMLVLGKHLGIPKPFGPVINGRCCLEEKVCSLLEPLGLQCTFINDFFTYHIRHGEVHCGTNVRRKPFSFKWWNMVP

SMILES	kinact/KI (PAD2) [M⁻¹ s⁻¹]	Fold PAD2 Selectivity (PAD2) [fold]	kinact/KI (PAD1) [M⁻¹ s⁻¹]	Fold PAD1 Selectivity (PAD1) [fold]	kinact/KI (PAD3) [M⁻¹ s⁻¹]	Fold PAD3 Selectivity (PAD3) [fold]	kinact/KI (PAD4) [M⁻¹ s⁻¹]	Fold PAD4 Selectivity (PAD4) [fold]	Ki (PAD2; PAD2, table footnote) [µM]	kinact (PAD2; PAD2, table footnote) [s⁻¹]
CCOc1cccc2c1nc([C@H](CCCNC(=N)CCl)NC(=O)c1cccc3c1C(=O)NC3)n2C [Compound 7n]	1200	30	982	24	108	2.7	40.2	1.0	–	–
COc1ccc2c(c1)nc([C@H](CCCNC(=N)CF)NC(=O)c1cccc3c1C(=O)NC3)n2C [Compound 7o, N1-(3-oxoisoindoline)benzoyl-N5-(2-fluoro-1-iminoethyl)-1-(5-methoxy-1-methyl-benzo[d]imidazol-2-yl)-L-ornithine]	1960	114	2080	121	17.2	1.0	20.5	1.2	20.7	0.0403
COc1ccc2c(c1)nc([C@H](CCCNC(=N)CCl)NC(=O)c1cccc3c1C(=O)NC3)n2C [Compound 7p, N1-(3-oxoisoindoline)benzoyl-N5-(2-chloro-1-iminoethyl)-1-(5-methoxy-1-methyl-benzo[d]imidazol-2-yl)-L-ornithine]	908	10	2210	25	218	2.4	90.2	1.0	–	–
CCn1c([C@H](CCCNC(=N)CF)NC(=O)c2cccc3c2C(=O)NC3)nc2c(OC)cccc21 [Compound 7q, N1-(3-oxoisoindoline)benzoyl-N5-(2-fluoro-1-iminoethyl)-1-(4-methoxy-1-ethyl-benzo[d]imidazol-2-yl)-L-ornithine]	845	32	998	38	26.7	1.0	26.3	1.0	–	–
CCn1c([C@H](CCCNC(=N)CCl)NC(=O)c2cccc3c2C(=O)NC3)nc2c(OC)cccc21 [Compound 7r, N1-(3-oxoisoindoline)benzoyl-N5-(2-chloro-1-iminoethyl)-1-(4-methoxy-1-ethyl-benzo[d]imidazol-2-yl)-L-ornithine]	657	19	1790	50	103	2.9	35.5	1.0	–	–
COc1ccc2[nH]c([C@H](CCCNC(=N)CF)NC(=O)c3cccc4c3C(=O)NC4)nc2c1 [Compound 7s, N1-(3-oxoisoindoline)benzoyl-N5-(2-fluoro-1-iminoethyl)-1-(5-methoxy-1H-benzo[d]imidazol-2-yl)-L-ornithine]	415	5.4	974	13	76.2	1.0	264	3.5	–	–
COc1ccc2[nH]c([C@H](CCCNC(=N)CCl)NC(=O)c3cccc4c3C(=O)NC4)nc2c1 [Compound 7t, N1-(3-oxoisoindoline)benzoyl-N5-(2-chloro-1-iminoethyl)-1-(5-methoxy-1H-benzo[d]imidazol-2-yl)-L-ornithine]	1000	3.5	2130	7.3	291	1.0	630	2.2	–	–
CCn1c([C@H](CCCNC(=N)CF)NC(=O)c2cccc3c2C(=O)NC3)nc2cc(OC)ccc21 [Compound 7u, N1-(3-oxoisoindoline)benzoyl-N5-(2-fluoro-1-iminoethyl)-1-(5-methoxy-1-ethyl-benzo[d]imidazol-2-yl)-L-ornithine]	658	50	316	24	33	2.5	13.2	1.0	–	–
CCn1c([C@H](CCCNC(=N)CCl)NC(=O)c2cccc3c2C(=O)NC3)nc2cc(OC)ccc21 [Compound 7v, N1-(3-oxoisoindoline)benzol-N5-(2-chloro-1-iminoethyl)-1-(5-methoxy-1-ethyl-benzo[d]imidazol-2-yl)-L-ornithine]	780	16	1010	21	214	4.4	48.8	1.0	–	–

Continued, values first:

kinact/KI (PAD2) [M⁻¹ s⁻¹]	Fold PAD2 Selectivity (PAD2) [fold]	kinact/KI (PAD1) [M⁻¹ s⁻¹]	Fold PAD1 Selectivity (PAD1) [fold]	kinact/KI (PAD3) [M⁻¹ s⁻¹]	Fold PAD3 Selectivity (PAD3) [fold]	kinact/KI (PAD4) [M⁻¹ s⁻¹]	Fold PAD4 Selectivity (PAD4) [fold]	Ki (PAD2; PAD2, table footnote) [µM]	kinact (PAD2; PAD2, table footnote) [s⁻¹]	SMILES
240	1.0	807	3.4	248	1.0	248	1.0	–	–	CCN1Cc2cccc(C(=O)N[C@@H](CCCNC(=N)CF)c3nc4ccccc4[nH]3)c2C1=O [Compound 8a, N1-(2-ethyl-3-oxoisoindoline)benzol-N5-(2-fluoro-1-iminoethyl)-1-(1H-benzo[d]imidazol-2-yl)-L-ornithine]
888	1.5	2530	4.3	583	1.0	810	1.4	–	–	CCN1Cc2cccc(C(=O)N[C@@H](CCCNC(=N)CCl)c3nc4ccccc4[nH]3)c2C1=O [Compound 8b, N1-(2-ethyl-3-oxoisoindoline)benzol-N5-(2-chloro-1-iminoethyl)-1-(1H-benzo[d]imidazol-2-yl)-L-ornithine]
546	11	308	6.1	95.8	1.9	50.5	1.0	–	–	CCN1Cc2cccc(C(=O)N[C@@H](CCCNC(=N)CF)c3nc4ccccc4n3C)c2C1=O [Compound 8c, N1-(2-ethyl-3-oxoisoindoline)benzoyl-N5-(2-fluoro-1-iminoethyl)-1-(1-methyl-benzo[d]imidazol-2-yl)-L-ornithine]
1190	19	1320	21	62.8	1.0	75.7	1.2	–	–	CCN1Cc2cccc(C(=O)N[C@@H](CCCNC(=N)CCl)c3nc4ccccc4n3C)c2C1=O [Compound 8d, N1-(2-ethyl-3-oxoisoindoline)benzoyl-N5-(2-chloro-1-iminoethyl)-1-(1-methyl-benzo[d]imidazol-2-yl)-L-ornithine]
677	33	402	19	20.8	1.0	20.7	1.0	–	–	CCN1Cc2cccc(C(=O)N[C@@H](CCCNC(=N)CF)c3nc4ccccc4n3CC)c2C1=O [Compound 8e, N1-(2-ethyl-3-oxoisoindoline)benzoyl-N5-(2-fluoro-1-iminoethyl)-1-(1-ethyl-benzo[d]imidazol-2-yl)-L-ornithine]
